Molecular target: T1, γ-secretase (Homo sapiens, UniProt P49768)
T1 construct: Human neuroglioma H4 cells overexpressing human APP695; endogenous in cells; host or cells: human neuroglioma H4 cells stably overexpressing human APP695 Swedish
Test: Cellular γ-secretase assay (inhibition of Aβ42 secretion, AlphaLisa)
Assay type: cell-based
Settings: Human neuroglioma H4 cells overexpressing human APP695 Swedish double mutation; 24 hr compound incubation; secreted Aβ42 in supernatant
Method: Description of γ-Secretase Assay
Cellular γ-Secretase Assay
Human neuroglioma H4 cells overexpressing human APP695 with the Swedish double mutation (K595N/M596L) were plated at 30,000 cells/well/100 al in 96-well plates in IMDM media containing 10% FCS, […] Hygromycin B and incubated at 37° C., 5% CO2.
3-4 hr post plating, compounds are a diluted in media and 50 μl is added as 1.5-fold concentrate to achieve the final concentration. Compound incubation is performed for 24 hr. Final doses typically range from 4 μM down to 0.0013 μM in half-log steps resulting in a eight point dose response curve.
Appropriate controls using vehicle only and reference compound were applied to this assay. The final concentration of Me2SO was 0.4%.
After incubation at 37° C., 5% CO2, the supernatant was subjected to quantification of secreted Aβ42 by the means of an AlphaLisa assay kit (Human Amyloid beta 1-42 Kit: Cat #AL203C, Perkin Elmer). 20 μl of the cell culture supernatant was transferred to an assay plate. Then 10 μl of a mixture of the AlphaLisa coupled capture antibody and the biotinylated detection antibody was added and incubated for 3 hours at room temperature while softly shaking the assay plate. After a further addition of 20 μl of the Donor beads the assay plate was incubated for 30 min at room temperature and constant shaking without exposure to direct light. The assay plate was then read on a Paradigm AlphaLisa Reader using the build-in program with excitation at 680 nm and emission at […].
The measured signals were then used to calculate IC50 values for inhibition of Aβ42 secretion by nonlinear regression fit analysis using XLfit 5.3 software (IDBS).

EC50 [nM] | Compound
20.6 | Cc1cc(N2C[C@H]3CC[C@@H](C2)[C@@H]3Nc2nc3n(n2)CCCCC3c2ccc(C(F)(F)F)cc2)ncn1 (mixture of isomers) [Example 3, N-[(1R,5S,8S)-3-(6-methylpyrimidin-4-yl)-3-azabicyclo[3.2.1]octan-8-yl]-9-[4-(trifluoromethyl)phenyl]-6,7,8,9-tetrahydro-5H-[1,2,4]triazolo[1,5-a]azepin-2-amine]
12.6 | Cc1cc(N2C[C@H]3CC[C@@H](C2)[C@@H]3Nc2nc3n(n2)CCCCC3c2ccc(F)c(F)c2F)ncn1 (mixture of isomers) [Example 14, N-[(1R,5S,8S)-3-(6-methylpyrimidin-4-yl)-3-azabicyclo[3.2.1]octan-8-yl]-9-(2,3,4-trifluorophenyl)-6,7,8,9-tetrahydro-5H-[1,2,4]triazolo[1,5-a]azepin-2-amine]
11.6 | Cc1cc(N2C[C@H]3CC[C@@H](C2)C3Nc2nc3n(n2)CCCC[C@@H]3c2ccc(C(F)(F)F)cc2)ncn1 (stereo partly drawn) [Example 5, (9R)—N-[(1R,5S)-3-(6-methylpyrimidin-4-yl)-3-azabicyclo[3.2.1]octan-8-yl]-9-[4-(trifluoromethyl)phenyl]-6,7,8,9-tetrahydro-5H-[1,2,4]triazolo[1,5-a]azepin-2-amine]
8.5 | COc1cc(N2C[C@H]3CC[C@@H](C2)[C@@H]3Nc2nc3n(n2)CCCCC3c2ccc(F)c(F)c2F)ccn1 (stereo partly drawn) [Example 20, N-[(1R,5S,8S)-3-(2-methoxy-4-pyridyl)-3-azabicyclo[3.2.1]octan-8-yl]-9-(2,3,4-trifluorophenyl)-6,7,8,9-tetrahydro-5H-[1,2,4]triazolo[1,5-a]azepin-2-amine]
34.6 | Fc1ccc(C2CCCCn3nc(N[C@@H]4[C@@H]5CC[C@H]4CN(c4ccnc(C(F)(F)F)c4)C5)nc32)c(F)c1F (stereo partly drawn) [Example 1, N-[(1R,5S,8S)-3-[2-(trifluoromethyl)-4-pyridyl]-3-azabicyclo[3.2.1]octan-8-yl]-9-(2,3,4-trifluorophenyl)-6,7,8,9-tetrahydro-5H-[1,2,4]triazolo[1,5-a]azepin-2-amine]
53.4 | COc1cc(N2C[C@H]3CC[C@@H](C2)[C@@H]3Nc2nc3n(n2)CCCCC3c2ccc(F)c(F)c2F)ncn1 (stereo partly drawn) [Example 21, N-[(1R,5S,8S)-3-(6-methoxypyrimidin-4-yl)-3-azabicyclo[3.2.1]octan-8-yl]-9-(2,3,4-trifluorophenyl)-6,7,8,9-tetrahydro-5H-[1,2,4]triazolo[1,5-a]azepin-2-amine]
12.5 | Fc1ccc([C@H]2CCCCn3nc(N[C@@H]4[C@@H]5CC[C@H]4CN(c4cc(Cl)ncn4)C5)nc32)c(F)c1F [Example 19, (9R)—N-[(1R,5S,8S)-3-(6-chloropyrimidin-4-yl)-3-azabicyclo[3.2.1]octan-8-yl]-9-(2,3,4-trifluorophenyl)-6,7,8,9-tetrahydro-5H-[1,2,4]triazolo[1,5-a]azepin-2-amine]
48.9 | Cc1cc(N2C[C@H]3CC[C@@H](C2)[C@@H]3Nc2nc3n(n2)CCCC[C@@H]3c2ccc(Cl)cc2)ncn1 [Example 9, (9R)-9-(4-chlorophenyl)-N-[(1R,5S,8S)-3-(6-methylpyrimidin-4-yl)-3-azabicyclo[3.2.1]octan-8-yl]-6,7,8,9-tetrahydro-5H-[1,2,4]triazolo[1,5-a]azepin-2-amine]
12.4 | Fc1ccc([C@@H]2CCCCn3nc(N[C@@H]4[C@@H]5CC[C@H]4CN(c4cc(Cl)ncn4)C5)nc32)c(F)c1F [Example 18, (9S)—N-[(1R,5S,8S)-3-(6-chloropyrimidin-4-yl)-3-azabicyclo[3.2.1]octan-8-yl]-9-(2,3,4-trifluorophenyl)-6,7,8,9-tetrahydro-5H-[1,2,4]triazolo[1,5-a]azepin-2-amine]
50.6 | FC(F)(F)c1cc(N2C[C@H]3CC[C@@H](C2)[C@@H]3Nc2nc3n(n2)CCCCC3c2ccc(Cl)cc2)ccn1 (stereo partly drawn) [Example 6, 9-(4-chlorophenyl)-N-[(1R,5S,8S)-3-[2-(trifluoromethyl)-4-pyridyl]-3-azabicyclo[3.2.1]octan-8-yl]-6,7,8,9-tetrahydro-5H-[1,2,4]triazolo[1,5-a]azepin-2-amine]
28 | Cc1cc(N2C[C@H]3CC[C@@H](C2)[C@@H]3Nc2nc3n(n2)CCCCC3c2cccc(C(F)(F)F)c2)ncn1 (mixture of isomers) [Example 11, N-[(1R,5S,8S)-3-(6-methylpyrimidin-4-yl)-3-azabicyclo[3.2.1]octan-8-yl]-9-[3-(trifluoromethyl)phenyl]-6,7,8,9-tetrahydro-5H-[1,2,4]triazolo[1,5-a]azepin-2-amine]
31.9 | Cc1cc(N2C[C@H]3CC[C@@H](C2)[C@@H]3Nc2nc3n(n2)CCCC[C@H]3c2ccc(Cl)cc2)ncn1 [Example 8, (9S)-9-(4-chlorophenyl)-N-[(1R,5S,8S)-3-(6-methylpyrimidin-4-yl)-3-azabicyclo[3.2.1]octan-8-yl]-6,7,8,9-tetrahydro-5H-[1,2,4]triazolo[1,5-a]azepin-2-amine]
37.4 | Cc1cc(N2C[C@H]3CC[C@@H](C2)[C@@H]3Nc2nc3n(n2)CCCC[C@H]3c2ccc(C(F)(F)F)cc2)ncn1 [Example 4, (9S)—N-[(1R,5S)-3-(6-methylpyrimidin-4-yl)-3-azabicyclo[3.2.1]octan-8-yl]-9-[4-(trifluoromethyl)phenyl]-6,7,8,9-tetrahydro-5H-[1,2,4]triazolo[1,5-a]azepin-2-amine]
14.9 | Cc1cc(N2C[C@H]3CC[C@@H](C2)[C@@H]3Nc2nc3n(n2)CCCC[C@H]3c2cccc(C(F)(F)F)c2)ncn1 [Example 12, (9S)—N-[(1R,5S,8S)-3-(6-methylpyrimidin-4-yl)-3-azabicyclo[3.2.1]octan-8-yl]-9-[3-(trifluoromethyl)phenyl]-6,7,8,9-tetrahydro-5H-[1,2,4]triazolo[1,5-a]azepin-2-amine]
7.1 | Cc1cc(N2C[C@H]3CC[C@@H](C2)[C@@H]3Nc2nc3n(n2)CCCC[C@@H]3c2ccc(F)c(F)c2F)ncn1 [Example 16, (9R)—N-[(1R,5S,8S)-3-(6-methylpyrimidin-4-yl)-3-azabicyclo[3.2.1]octan-8-yl]-9-(2,3,4-trifluorophenyl)-6,7,8,9-tetrahydro-5H-[1,2,4]triazolo[1,5-a]azepin-2-amine]
48.4 | FC(F)(F)c1ccc(C2CCCCn3nc(N[C@@H]4[C@@H]5CC[C@H]4CN(c4ccnc(C(F)(F)F)c4)C5)nc32)cc1 (stereo partly drawn) [Example 2, 9-[4-(trifluoromethyl)phenyl]-N-[(1R,5S,8S)-3-[2-(trifluoromethyl)-4-pyridyl]-3-azabicyclo[3.2.1]octan-8-yl]-6,7,8,9-tetrahydro-5H-[1,2,4]triazolo[1,5-a]azepin-2-amine]
30.3 | Cc1ncnc(N2C[C@H]3CC[C@@H](C2)[C@@H]3Nc2nc3n(n2)CCCCC3c2ccc(F)c(F)c2F)c1F (stereo partly drawn) [Example 22, N-[(1R,5S,8S)-3-(5-fluoro-6-methyl-pyrimidin-4-yl)-3-azabicyclo[3.2.1]octan-8-yl]-9-(2,3,4-trifluorophenyl)-6,7,8,9-tetrahydro-5H-[1,2,4]triazolo[1,5-a]azepin-2-amine]
15 | Cc1cc(N2C[C@H]3CC[C@@H](C2)[C@@H]3Nc2nc3n(n2)CCCC[C@@H]3c2cccc(C(F)(F)F)c2)ncn1 [Example 13, (9R)—N-[(1R,5S,8S)-3-(6-methylpyrimidin-4-yl)-3-azabicyclo[3.2.1]octan-8-yl]-9-[3-(trifluoromethyl)phenyl]-6,7,8,9-tetrahydro-5H-[1,2,4]triazolo[1,5-a]azepin-2-amine]
17.7 | Fc1ccc(C2CCCCn3nc(N[C@@H]4[C@@H]5CC[C@H]4CN(c4cc(Cl)ncn4)C5)nc32)c(F)c1F (mixture of isomers) [Example 17, N-[(1R,5S,8S)-3-(6-chloropyrimidin-4-yl)-3-azabicyclo[3.2.1]octan-8-yl]-9-(2,3,4-trifluorophenyl)-6,7,8,9-tetrahydro-5H-[1,2,4]triazolo[1,5-a]azepin-2-amine]
23.4 | Cc1cc(N2C[C@H]3CC[C@@H](C2)[C@@H]3Nc2nc3n(n2)CCCCC3c2ccc(Cl)cc2)ncn1 (mixture of isomers) [Example 7, 9-(4-chlorophenyl)-N-[(1R,5S,8S)-3-(6-methylpyrimidin-4-yl)-3-azabicyclo[3.2.1]octan-8-yl]-6,7,8,9-tetrahydro-5H-[1,2,4]triazolo[1,5-a]azepin-2-amine]
8.4 | Cc1cc(N2C[C@H]3CC[C@@H](C2)[C@@H]3Nc2nc3n(n2)CCCC[C@H]3c2ccc(F)c(F)c2F)ncn1 [Example 15, (9S)—N-[(1R,5S,8S)-3-(6-methylpyrimidin-4-yl)-3-azabicyclo[3.2.1]octan-8-yl]-9-(2,3,4-trifluorophenyl)-6,7,8,9-tetrahydro-5H-[1,2,4]triazolo[1,5-a]azepin-2-amine]
33.7 | FC(F)(F)c1cccc(C2CCCCn3nc(N[C@@H]4[C@@H]5CC[C@H]4CN(c4ccnc(C(F)(F)F)c4)C5)nc32)c1 (stereo partly drawn) [Example 10, 9-[3-(trifluoromethyl)phenyl]-N-[(1R,5S,8S)-3-[2-(trifluoromethyl)-4-pyridyl]-3-azabicyclo[3.2.1]octan-8-yl]-6,7,8,9-tetrahydro-5H-[1,2,4]triazolo[1,5-a]azepin-2-amine]
